In PubChem BioAssay AID1963872 (Molecular Pharmacology Branch, DTP, NCI, 2024) one finds IC50 and viability, T/C data, which are given here for three compounds.

Where only a bound is given, the exact number is not on record here.

This experiment has as its system KRAS patient-derived spheroids with HUVEC/MSC, viability. Briefly: Anticancer human tumor 519858-162-T-J1-PDC patient-derived colon adenocarcinoma cell line growth inhibition [KRAS2]. The note with it: for viability, T/C: stronger effect = lower value. The text has this: Multicellular complex tumor spheroid response to RAS pathway inhibitors in combination with a targeted agents in patient-derived cell lines with oncogenic KRAS variants from multiple cancer types
A high-throughput screen of multi-cell type tumor spheroids was designed to identify active combinations of targeted small molecules and KRAS pathway inhibitors. Complex spheroids include a stromal component modeled by human endothelial cells (HUVEC) and fibroblasts modeled by human mesenchymal stem cells (MSCs). The concentration ranges selected for each drug and investigational agent were based upon clinically achievable concentrations if the clinical Cmax of the agent was known.
Compounds. The drugs and investigational agents: BI-3406 (NSC825286), BAY-293 (NSC824723), batoprotafib (TNO155; NSC825523), sotorasib (AMG 510; NSC818433), MRTX1257 (NSC819558), elimusertib (BAY 1895344; NSC800525), molibresib (GSK525762; NSC774829), temuterkib (LY3214996; NSC803410), venetoclax (NSC766270), alisertib (NSC759677), olaparib (NSC753686), talazoparib (NSC767125), erdafitinib (NSC781556), ipatasertib (NSC767898), cabozantinib (NSC761068), nintedanib (NSC756659), abemaciclib (NSC768073), docetaxel (NSC628503), trametinib (NSC758246), and sapanisertib (NSC764658) were obtained from the National Cancer Institute (NCI) Developmental Therapeutics Program Chemical Repository. The FDA-approved anticancer drug set is available from the Developmental Therapeutics Program. […] The stock solutions were prepared in dimethyl sulfoxide (DMSO, Sigma-Aldrich, St. Louis, MO, cat. D2650) at 800-fold the tested concentration and stored at -70 degrees C prior to their use. All drugs and investigational agents were tested over a range starting from a high concentration at or near the clinical Cmax and decreasing in half-log increments. If the clinical Cmax for an agent had not been determined, the highest concentration tested was 10 microM.
Cell Culture. All cells were maintained in an incubator at 37 degrees C and 5% CO2 with 95% humidity. The PDC lines were cultured according to standard operating procedures established by the NCI PDMR (https://pdmr.cancer.gov/sops/default.htm). Briefly, all PDCs were thawed and cultured in Matrigel-coated flasks prepared with a working solution of 1X Ham's F-12 nutrient mix, without supplementation (Invitrogen, Waltham, MA, cat. 11765054), 100 U/mL penicillin-streptomycin (Invitrogen, cat. 15140122), and 2.5% Matrigel (Corning Inc., Corning, NY, cat. 354248) for the first three passages. All PDCs were cultured in complete DMEM/F-12 media containing advanced DMEM/F-12 (Invitrogen, cat. 12634028), 4.9% defined fetal bovine serum, heat inactivated (HyClone Laboratories Inc., Logan, UT, cat. SH30070.03HI), 389 ng/mL hydrocortisone (Sigma-Aldrich, cat. H4001), 9.7 ng/mL human EGF recombinant protein (Invitrogen, cat. PHG0313), 23.4 microg/mL adenine (Sigma-Aldrich, cat. A2786), 97.3 U/mL penicillin-streptomycin (Invitrogen, cat. 15140122), 1.9 mM L-glutamine (Invitrogen, cat. 25030081), and 9.7 microM Y-27632 dihydrochloride (Tocris Bioscience, Bristol, United Kingdom, cat. 1254). The PDCs were cultured in complete DMEM/F12 media without 9.7 microM Y-27632 dihydrochloride for at least two passages prior to the screen. The established cell line HOP-62 was cultured in RPMI 1640 medium, HEPES (Invitrogen, cat. 22400105) with 10% defined fetal bovine serum (HyClone Laboratories Inc., cat. SH30070.03) and 2 mM L-glutamine (Invitrogen, cat. 25030081). The pooled donor HUVEC were cultured in endothelial cell growth medium 2 (PromoCell, Heidelberg, Germany, cat. C-22011) and the hMSC were cultured in mesenchymal stem cell growth medium 2 (PromoCell, cat. C-28009). For all experiments, HUVEC and hMSC were used at passages </=5, while the malignant cell lines were used at passages </=15. […]

Setting [1] is: curve of first compound, second compound 0.1 µM.
The mark [2] stands for this setting: curve of first compound, second compound 0.316 µM.
Setting [3] is: curve of first compound, second compound 1 µM.
[4] abbreviates: curve of first compound, second compound 3.16 µM.
Setting [5] is: curve of first compound, second compound 10 µM.
Where [6] appears, read: second compound 0.1 µM, first compound 0.0316 µM.
The mark [7] stands for this setting: second compound 0.1 µM, first compound 0.1 µM.
[8] abbreviates: second compound 0.1 µM, first compound 0.316 µM.
Setting [9] is: second compound 0.1 µM, first compound 1 µM.
Where [10] appears, read: second compound 0.1 µM, first compound 3.16 µM.
[11] abbreviates: second compound 0.1 µM, first compound 10 µM.
The mark [12] stands for this setting: second compound 0.316 µM, first compound 0.0316 µM.
Where [13] appears, read: second compound 0.316 µM, first compound 0.1 µM.
Where [14] appears, read: second compound 0.316 µM, first compound 0.316 µM.
Where [15] appears, read: second compound 0.316 µM, first compound 1 µM.
Where [16] appears, read: second compound 0.316 µM, first compound 3.16 µM.
Where [17] appears, read: second compound 0.316 µM, first compound 10 µM.
Setting [18] is: second compound 1 µM, first compound 0.0316 µM.
Setting [19] is: second compound 1 µM, first compound 0.1 µM.
[20] abbreviates: second compound 1 µM, first compound 0.316 µM.
Setting [21] is: second compound 1 µM, first compound 1 µM.
Where [22] appears, read: second compound 1 µM, first compound 3.16 µM.
Setting [23] is: second compound 1 µM, first compound 10 µM.
The mark [24] stands for this setting: second compound 3.16 µM, first compound 0.0316 µM.
The mark [25] stands for this setting: second compound 3.16 µM, first compound 0.1 µM.
The mark [26] stands for this setting: second compound 3.16 µM, first compound 0.316 µM.
The mark [27] stands for this setting: second compound 3.16 µM, first compound 1 µM.
Setting [28] is: second compound 3.16 µM, first compound 3.16 µM.
The mark [29] stands for this setting: second compound 3.16 µM, first compound 10 µM.
[30] abbreviates: second compound 10 µM, first compound 0.0316 µM.
The mark [31] stands for this setting: second compound 10 µM, first compound 0.1 µM.
Setting [32] is: second compound 10 µM, first compound 0.316 µM.
Setting [33] is: second compound 10 µM, first compound 1 µM.
Where [34] appears, read: second compound 10 µM, first compound 3.16 µM.
[35] abbreviates: second compound 10 µM, first compound 10 µM.
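Note: compound exposure lasted seven days before readout.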

`COc1cc2nccc(Oc3ccc(NC(=O)C4(C(=O)Nc5ccc(F)cc5)CC4)cc3)c2cc1OC` + C=CC(=O)N1CCN(c2nc(=O)n(-c3c(C)ccnc3C(C)C)c3nc(-c4c(O)cccc4F)c(F)cc23)C(C)C1: the IC50 (usually the midpoint of a concentration-inhibition curve) was above 10 µM under setting [1]; above 10 µM under setting [2]; above 10 µM under setting [3]; above 10 µM under setting [4]; above 10 µM under setting [5]. The viability, T/C (in general, the result in the treated group divided by that in the control group, in per cent) under setting [6] was 77.8%; the viability, T/C under setting [7] was 91.2%; the viability, T/C under setting [8] was 93.5%; the viability, T/C under setting [9] is 93.6%; the viability, T/C under setting [10] is 71.8%; the viability, T/C under setting [11] is 185%. The viability, T/C under setting [12] was 97.1%; the viability, T/C under setting [13] is 99%; the viability, T/C under setting [14] was 92.3%; the viability, T/C under setting [15] was 86.6%; the viability, T/C under setting [16] was 84.8%; the viability, T/C under setting [17] is 135%. For the same compound, the viability, T/C runs as follows: under setting [18], 91.5%; under setting [19], 87.7%; under setting [20], 91.7%; under setting [21], 98.7%; under setting [22], 105%; under setting [23], 134%. The viability, T/C was 88.2% under setting [24]; 73.3% under setting [25]; 69.8% under setting [26]; 81% under setting [27]; 74.2% under setting [28]; 109% under setting [29]. The viability, T/C by setting is: under setting [30], 94.7%; under setting [31], 89.5%; under setting [32], 75.6%; under setting [33], 68.2%; under setting [34], 61.9%; under setting [35], 131%.

As to `CC(C)n1nc(-c2ccc3oc(N)nc3c2)c2c(N)ncnc21`, under “compound 0.001 µM”, the viability, T/C was 97.5% [middle of 5 runs]. Besides, the IC50 (curve of compound) was above 0.1 µM.

Turning to `O=C(c1cc(Cc2n[nH]c(=O)c3ccccc23)ccc1F)N1CCN(C(=O)C2CC2)CC1` + COc1cc2nc(C)nc(NC(C)c3cc(N)cc(C(F)(F)F)c3)c2cc1OC1CCOC1, the IC50 by setting is: under setting [1], above 10 µM; under setting [2], above 10 µM; under setting [3], above 10 µM; under setting [4], above 10 µM; under setting [5], above 10 µM. The viability, T/C was 68.1% under setting [6]; 98.2% under setting [7]; 98.6% under setting [8]; 111% under setting [9]; 91% under setting [10]; 97.4% under setting [11]. In addition, the viability, T/C reads like this: under setting [12], 75.1%; under setting [13], 90%; under setting [14], 89.9%; under setting [15], 80.2%; under setting [16], 102%; under setting [17], 99.1%. Moreover, the viability, T/C reads like this: under setting [18], 73.3%; under setting [19], 108%; under setting [20], 89.9%; under setting [21], 83.7%; under setting [22], 112%; under setting [23], 72.6%. The viability, T/C reads like this: under setting [24], 78.1%; under setting [25], 89.7%; under setting [26], 75.6%; under setting [27], 80.8%; under setting [28], 79.6%; under setting [29], 66.8%. In addition, the viability, T/C was 117% under setting [30]; 85.1% under setting [31]; 96.2% under setting [32]; 53.4% under setting [33]; 67.1% under setting [34]; 109% under setting [35].
